From US7659270B2, “Hepatitis C virus inhibitors” (Bristol-Myers Squibb Company, priority 2006, dated 2010)
pEC50: −log10 of the molar value.

System: HCV 1b-377-neo replicon cells
Assay: HCV replicon assay (HCV 1b-377-neo replicon cells)
Format: cell-based, Hepatitis C virus genotype 1b
Conditions: Hepatitis C virus, read-out: EC50 range against HCV 1b (Range)
Procedure: An HCV Replion assay was utilized in the present disclosure, and was prepared, conducted and validated as described in commonly owned PCT/US2006/022197 and in O'Boyle et. al. Antimicrob Agents Chemother. April 2005;49(4): 1346-53.
HCV 1b-377-neo replicon cells were used to test the currently described compound series as well as cells resistant to compound A due to a Y2065H mutation in NS5A (described in application PCT/US2006/022197). The compounds tested were determined to have more than 10-fold less inhibitory activity on cells resistant to compound A than wild-type cells indicating a related mechanism of action between the two compound series. Thus, the compounds of the present disclosure can be effective to inhibit the function of the HCV NS5A protein and are understood to be as effective in combinations as previously described in application PCT/US2006/022197 and commonly owned WO/04014852. Further, the compounds of the present disclosure can be effective against the HCV 1b genotype. It should also be understood that the compounds of the present disclosure can inhibit multiple genotypes of HCV. […] In one embodiment compounds of the present disclosure are active against the 1a, 1b, 2a, 2b, 3a, 4a, and 5a genotypes.

`CO[C@@H](C(=O)N1CCC[C@H]1c1ncc(-c2ccc(-c3ccc(-c4cnc([C@@H]5CCCN5C(=O)[C@H](OC)c5ccccc5)[nH]4)cn3)cc2)[nH]1)c1ccccc1` [Example 135, 5-(2-((2S)-1-((2R)-2-methoxy-2-phenylacetyl)-2-pyrrolidinyl)-1H-imidazol-5-yl)-2-(4-(2-((2S)-1-((2R)-2-methoxy-2-phenylacetyl)-2-pyrrolidinyl)-1H-imidazol-5-yl)phenyl)pyridine] and `COC(=O)N[C@@H](C(=O)N1CCC[C@H]1c1ncc(-c2ccc(-c3ccc(-c4cnc([C@@H]5CCCN5C(=O)[C@@H](c5ccccc5)N(C)C)[nH]4)cn3)cc2)[nH]1)c1ccccc1` [Example 140, methyl((1R)-2-((2S)-2-(5-(4-(5-(2-((2S)-1-((2R)-2-(dimethylamino)-2-phenylacetyl)-2-pyrrolidinyl)-1H-imidazol-5-yl)-2-pyridinyl)phenyl)-1H-imidazol-2-yl)-1-pyrrolidinyl)-2-oxo-1-phenylethyl)carbamate] fall in the same range of pEC50: 9.00 to 11.00 for the first, 9.00 to 11.00 for the second.

`Cc1cc(-c2cnc([C@@H]3CCCN3C(=O)[C@@H](c3ccccc3)N(C)C)[nH]2)ccc1-c1ccc(-c2cnc([C@@H]3CCCN3C(=O)[C@@H](c3ccccc3)N(C)C)[nH]2)cn1` [Example 136, (1R)-2-((2S)-2-(5-(6-(4-(2-((2S)-1-((2R)-2-(dimethylamino)-2-phenylacetyl)-2-pyrrolidinyl)-1H-imidazol-5-yl)-2-methylphenyl)-3-pyridinyl)-1H-imidazol-2-yl)-1-pyrrolidinyl)-N,N-dimethyl-2-oxo-1-phenylethanamine] and `COC(=O)N[C@@H](C(=O)N1CCC[C@H]1c1ncc(-c2ccc(-c3ccc(-c4cnc([C@@H]5CCCN5C(=O)[C@H](NC(=O)OC)c5ccccc5)[nH]4)cc3C)nc2)[nH]1)c1ccccc1` [Example 138, methyl((1R)-2-((2S)-2-(5-(6-(4-(2-((2S)-1-((2R)-2-((methoxycarbonyl)amino)-2-phenylacetyl)-2-pyrrolidinyl)-1H-imidazol-5-yl)-2-methylphenyl)-3-pyridinyl)-1H-imidazol-2-yl)-1-pyrrolidinyl)-2-oxo-1-phenylethyl)carbamate] fall in the same range of pEC50: 9.00 to 11.00 for the first, 9.00 to 11.00 for the second.

`CC(=O)N[C@@H](C(=O)N1CCC[C@H]1c1ncc(-c2ccc(-c3ccc(-c4cnc([C@@H]5CCCN5C(=O)[C@H](NC(C)=O)c5ccccc5)[nH]4)cn3)cc2)[nH]1)c1ccccc1` [Example 139, N-((1R)-2-((2S)-2-(5-(6-(4-(2-((2S)-1-((2R)-2-acetamido-2-phenylacetyl)-2-pyrrolidinyl)-1H-imidazol-5-yl)phenyl)-3-pyridinyl)-1H-imidazol-2-yl)-1-pyrrolidinyl)-2-oxo-1-phenylethyl)acetamide] and `COC(=O)N[C@@H](C(=O)N1CCC[C@H]1c1ncc(-c2ccc(-c3ccc(-c4cnc([C@@H]5CCCN5C(=O)[C@H]5CCCO5)[nH]4)cn3)cc2)[nH]1)c1ccccc1` [Example 141, methyl ((1R)-2-oxo-1-phenyl-2-((2S)-2-(5-(4-(5-(2-((2S)-1-((2R)-tetrahydro-2-furanylcarbonyl)-2-pyrrolidinyl)-1H-imidazol-5-yl)-2-pyridinyl)phenyl)-1H-imidazol-2-yl)-1-pyrrolidinyl)ethyl)carbamate] fall in the same range of pEC50: 9.00 to 11.00 for the first, 9.00 to 11.00 for the second.

For `COC(=O)N[C@@H](C(=O)N1CCC[C@H]1c1ncc(-c2ccc(-c3ccc(-c4cnc([C@@H]5CCCN5C(=O)C5CCN(C)CC5)[nH]4)cn3)cc2)[nH]1)c1ccccc1` [Example 142, methyl ((1R)-2-((2S)-2-(5-(4-(5-(2-((2S)-1-((1-methyl-4-piperidinyl)carbonyl)-2-pyrrolidinyl)-1H-imidazol-5-yl)-2-pyridinyl)phenyl)-1H-imidazol-2-yl)-1-pyrrolidinyl)-2-oxo-1-phenylethyl)carbamate], the pEC50 was 7.00 to 9.00.
